Test results as given in US20230263825A1, “ANTI-CANCER ACTIVITY OF PERBORATE SALTS” (priority 2020, published 2023).
“Also recorded” adds a separate entry of the source.

How the values were obtained:
Assay type in all cases: cell-based
MRC5 cells = test: Video analysis of cell movement and division
Description: (§1) The DMS114 and MRC5 cells from Example 2 were analyzed during the 3 day treatment period with sodium perborate tetrahydrate. Roughly 20 photos/hour were taken of the cells over the 72 hour (3 day) period. The resulting 1500 were merged to create a video which was used to observe the effect of sodium perborate on movement and division of DMS114 and MRC5 cells. […] FIGS. 21A and 21B show DMS114 cells at the start and end of the 72 hour treatment period. FIGS. 22A and 22B show MRC5 cells at the start and end of the 72 hour treatment period.

DMS114 cells = test: Video analysis of cell movement and division; conditions: 72 hour treatment
Description: as §1

[1] = tested on: PSN-1 (a pancreatic adenocarcinoma cell line); test: MTS cytotoxicity assay, single agents and combinations; conditions: PSN-1, alone
Description: An MTS reduction (MTS (3-(4,5-dimethylthiazol-2-yl)-5-(3-carboxymethoxyphenyl)-2-(4-sulfophenyl)-2H-tetrazolium) assay) was conducted to analyze the cytotoxic effect of sodium perborate tetrahydrate on lung, chordoma and pancreatic cells and normal cells. In this method, cell viability is determined via the activity of mitochondrial dehydrogenase enzyme, which reduces the tetrazolium dye MTS to its […] formazan (absorbance maximum of 490 nm in PBS).
Cells were counted and seeded in 96-well culture dishes. […] The positive control comprised 20% Dimethyl Sulfoxide and the negative control comprised complete growth media. Seeding densities were as follows: DMS114: 20.000 cells/well; MRC5: 5.000 cells/well; CH22: 2.000 cells/well; JHC7, UM-Chor1, MUG-Chor1, UCH1 and NPH: 5.000 cells/well; PSN1: 10.000 cells/well; BxPC3 and ASPC: 7.500 cells/well. The effect of sodium perborate tetrahydrate on cell viability was measured as follows. The cell culture medium was discarded and 100 μl of MTS solution (10% glucose solution and 1% MTS-PMS solution in PBS) was added into each well. After 1 hour incubation in a humidified incubator, an absorbance reading was taken to determine mitochondrial dehydrogenase activity and cell survival was calculated relative to the negative control.

Compound: O.O.O.O.[Na+].[O-]B1OO1 [sodium perborate tetrahydrate]
- division and movement of healthy cells (MRC5 cells): slowing cell division and movement of healthy cells to some extent; also recorded: only slowed the division and movement
- DMS114 cells whose movement was stopped (DMS114 cells): ~100%
- EC50 concentration [1]: 7.5 µg/mL
